Experimental data as given in patent US20130224110A1, “USE OF ADENOSINE RECEPTOR SIGNALING TO MODULATE PERMEABILITY OF BLOOD-BRAIN BARRIER” (CORNELL UNIVERSITY, priority 2010, published 2013).

Assays:
hCMEC/D3 cells = assay: Jurkat cell migration across hCMEC/D3 transwell in vitro BBB; type: cell-based, human; details: 24 hours
Method: hCMEC/D3 cells were seeded onto Transwell and allowed to grow to confluencey. 2×10^6 Jurkat cells were added to the upper chamber with or without NECA (general adenosine receptor [AR] agonist), CCPA (A1 AR agonist), CGS 21860 (A2A AR agonist), or DMSO vehicle. After 24 hours, migrated cells in the lower chamber were counted. Values are relative to the number of cells that migrate through non-[…]3 seeded transwells.

blood brain barrier = assay: Fluorescently labeled dextran extravasation into mouse brain (fluorimetry); type: in vivo, mice
Method: The adenosine receptor agonists NECA, CCPA, CGS 21860, and SCH 58261 (Tocris, Ellisville, Mo.) were each dissolved in DMSO then diluted in PBS to the desired concentration; in most cases final DMSO concentrations were <0.5% (vol/vol). Lexiscan (Regadenoson; TRC, Inc., Toronto) was dissolved in PBS. For vehicle controls, DMSO was diluted in PBS to the same concentration. Dehydrated dextrans labeled with either FITC or Texas Red (Invitrogen, Carlsbad, Calif.) were re-suspended in PBS to 10 mg/ml. All experiments involving dextran injection used 1.0 mg dextran in PBS. In experiments where drug and dextran were injected concomitantly, 1.0 mg of dextran was mixed with the drug to the desired concentration in a final volume of 200 μl. In dose-response experiments, drugs and dextrans were injected concomitantly. All injections, except injections of SCH 58261, were retro-orbital i.v. with a 27-gauge needle. In the SCH 58261 experiment, SCH 58261 injections, 1 mg/kg, were intraperitoneal and mice were pre-dosed with this concentration daily for 4 days prior to the day of the experiment. An additional injection was administered at the time of the experiment. Vehicle/drug and dextrans were injected on day 5 and tissues were collected 3 h after vehicle/drug administration. In Lexiscan experiments, Lexiscan was administered i.v. with 3 injections, 5 min apart and tissues were collected at 15 min unless otherwise indicated.
In dose-response experiments and experiments with the A1 AR and A2A AR knock-out mice, drugs and dextrans were injected concomitantly. After 3 h, the mice were anesthetized with ketamine/xylazine and subjected to a nose cone containing isoflurane. They were perfused with 25-50 ml ice-cold PBS through the left ventricle of the heart then decapitated. Their brains were removed, weighed and frozen for later analysis.
Ice-cold 50 mMTris-Cl (pH 7.6) was added to frozen brains (100 μl per 100 mg brain) and were to thawed on ice. They were homogenized with a dounce homogenizer and centrifuged at […] in a microfuge for 30 min at room temperature (rt). The supernatants were transferred to new tubes and an equal volume absolute methanol was added. The samples were centrifuged again at […] for 30 min at rt. Supernatant (200 μl) was transferred to a Corning costar 96 well black polystyrene assay plate (clear bottom). Additionally, a series of standards containing 0.001-10 pg/ml dextran in 50% Tris-Cl/50% absolute methanol (vol/vol) was added to each plate. Absolute concentrations of dextrans were derived from these standard curves. Fluorimetric analysis was performed on a BioTek (Winooski, Vt.) Synergy 4. FITC-dextran was detected at 488/519 (excitation/emission) and Texas Red-dextran was detected at 592/618.

SMILES | lymphocyte (Jurkat) migration across the in vitro BBB (hCMEC/D3 cells) | levels of i.v.-administered dextrans in brain compared to wild type mice (blood brain barrier; A1−/− and A2A−/− mice, i.v., 3 h) | FITC-dextran extravasation into brain (pilot experiment, data not shown) (blood brain barrier; CD73−/− mice, 10,000 Da FITC-dextran i.v.) | time of maximum entry of labeled dextran into the CNS post-treatment (blood brain barrier; WT mice, 0.08 mg/kg i.v., dextran co-administered at T0) [h] | time by which barrier permeability returns to baseline (blood brain barrier; WT mice, 0.08 mg/kg i.v., dextran given at indicated times after treatment) [h] | effect of higher concentrations on dextran entry (blood brain barrier; WT mice, doses above 0.08 mg/kg) | dose giving maximum entry of dextrans into the CNS (blood brain barrier; WT mice, i.v., 3 h) [mg/kg] | CNS entry of 10,000 Da and 70,000 Da dextrans (blood brain barrier; WT mice, i.v., 3 h, varying dose, vs vehicle) | BBB permeability after NECA administration with A2A blockade (blood brain barrier; A1 AR−/− mice pre-treated with the antagonist before NECA) | entry of 10,000 Da FITC-dextran into brain (blood brain barrier; WT mice, 1 mg/kg intraperitoneal daily for 4 days plus day of experiment)
CCNC(=O)[C@H]1O[C@@H](n2cnc3c(N)ncnc32)[C@H](O)[C@@H]1O [NECA, 5′-N-ethylcarboxamido adenosine] | induced some migration | significantly lower levels | dramatic increase in FITC-dextran extravasation | 4 to 6 | 8 to 18 | no additional effect or show diminished efficacy | 0.08 | dose-dependent increases in CNS entry | – | –
Nc1nc2c(cnn2CCc2ccccc2)c2nc(-c3ccco3)nn12 [SCH58261, 2-(2-Furanyl)-7-(2-phenylethyl)-7H-pyrazolo[4,3-e][1,2,4]triazolo[1,5-c]pyrimidin-5-amine] | – | – | – | – | – | – | – | – | no significant increase in BBB permeability was observed | significantly decreased entry of 10,000 Da FITC-dextran
